Laboratory results taken from US20260184700A1, “PDK1 REGULATORY COMPOUND AND COMPOSITION CONTAINING THE SAME” (PROVIBIO CO., LTD., priority 2024, published 2026).

Columns and labels:
[1] = test system: T cells isolated from mouse spleen; experiment: T cell proliferation inhibition, CFSE flow cytometry, CD3/CD28 activation; type: cell-based; conditions: CD3/CD28 activated, 3 days
Description: To verify the T cell proliferation inhibitory effect of the compounds according to the present invention, the following experiment was performed based on flow cytometry analysis using carboxyfluorescein diacetate succinimidyl ester (CFSE), a fluorescent dye that binds to intracellular molecules via covalent bonds.
Spleens were extracted from 7-week-old C57BL/6 mice, ground, and then separated into single cells using a strainer (40 μm pore size, SPL). Red blood cells were removed using ACK (Ammonium-Chloride-Potassium) lysis buffer to isolate white blood cells.
Finally, using a MACS Magnetic Stand and LS column, T cells were isolated from the spleen.
The T cells isolated from the spleen were resuspended in 1 mL of free medium (RPMI-1640+200 U/mL penicillin+200 μg/mL streptomycin), and 0.3 μL of CFSE (10 mM) was added. The mixture was incubated at 37° C. for 5 minutes.
Free medium (10 mL) was added to stop the reaction, and the cells were centrifuged to obtain the cell pellet.
RPMI 1640 medium containing 10% FBS, 100 U/mL penicillin, 100 μg/mL streptomycin, and resuspended the cells. The cells were then seeded into a 96-well plate at a density of 2×10^5 cells per well and activated with CD3 and CD28 antibodies (0.5 μg/mL each) to activate T cells.
The compound diluted in DMSO was added at concentrations of 10 nM, 100 nM, 1 μM, 10 μM, 30 μM, and 50 μM, with three wells per concentration, and cultured at 37° C. and 5% CO2 for three days. The cells were then analyzed using a FACS Canto instrument.
The proliferation inhibition rate (%) was calculated using the following formula: […]

[2] = test system: HCT-116 colon cancer cell lines; experiment: Invasion Assay using Matrigel, HCT-116; type: cell-based, human; conditions: HCT-116, Matrigel invasion, 24 hours treatment
Description: To evaluate the metastasis inhibitory efficacy of the compounds of the present invention on HCT-116 colon cancer cell lines, an Invasion Assay using Matrigel was performed to assess the cells' invasion ability.
First, Matrigel was thawed on ice in RPMI-1640 medium without FBS, then diluted with DMEM at a ratio of 1:20.
The diluted Matrigel mixture was applied to the upper chamber at 100 μl per well, and 750 μl of RPMI-1640 without FBS was added to the lower chamber.
The plates were then incubated at 37° C. for 1 hour to allow the Matrigel to solidify.
After coating, the Matrigel mixture in the upper chamber was removed using a pipette, and the chamber was washed with RPMI without FBS.
Human-derived colorectal cancer cell line HCT-116, obtained from the Korean Cell Bank, was cultured in RPMI-1640 medium containing 10% FBS.
Following stabilization, the cells were harvested using Trypsin-EDTA treatment, centrifuged at 1,200 rpm for 3 minutes, the supernatant was removed, and the cells were resuspended in the same medium, the medium in the lower chamber was replaced with 750 μl of RPMI-1640 supplemented with 10% FBS, and the cells were seeded into the upper chamber at a density of 5×10^4 cells/well.
The cells were cultured for 24 hours after attachment, and then the compounds according to the present invention (G078, G085, G086, G088, G089, PBK-2024-010, PBK-2025-010, PBK-2025-013, PBK-2025-016) and the control substance DMSO were diluted and added to the upper chamber after removing the medium.
Additionally, the medium in the lower chamber was replaced with fresh RPMI-1640 containing FBS, and the culture was continued.
After an additional 24 hours, the medium was removed, and 1 ml of methanol was added for 10 minutes to fix the cells.
Subsequently, 1 ml of Hematoxylin was added and reacted for 5 minutes, followed by 1 ml of Eosin, which was reacted for 30 seconds. The sample was then washed with distilled water (DW).
After staining was complete, any remaining cells in the upper chamber were removed. Finally, the infiltrated cells were observed under a microscope, photographed, and the degree of infiltration was analyzed.

[3] = test system: phospho-PDK1 in SU-DHL-8 cells; experiment: PDK1 phosphorylation (pPDK1) by flow cytometry in SU-DHL-8 cells; type: cell-based, human; conditions: SU-DHL-8, 24 hours, pPDK1-PE flow cytometry, vs control group
Description: SU-DHL-8 cells were cultured in RPMI-1640 medium (containing 10% FBS, 100 U/mL penicillin, and 100 μg/mL streptomycin), and the cell concentration was adjusted to 1×10^6 cells/mL and seeded into a 12-well plate. After stabilizing the cells, the compound of the present invention was added, and the cells were cultured for 24 hours.
After drug treatment, the cells were harvested, and the Fc receptor blocking process was performed. The cells were then fixed and permeabilized using the Intracellular Staining Kit (Cat. No. BD554715) from BD Biosciences. Subsequently, the intracellular pPDK1 was stained using the pPDK1-PE fluorescently labeled antibody (BD Biosciences).
Referring to the figure, the vertical axis represents the phosphorylation level of PDK1 (phospho-PDK1 expression level), and the horizontal axis denotes the concentration-dependent treatment conditions of each compound.

MRL/lpr mice = experiment: Lupus animal model (MRL/lpr mice); type: in vivo, mouse; conditions: 41-week-old female MRL/lpr mice; GO15F (30 mg/kg), GO48 (1 mg/kg), GO88 (0.5 mg/kg) intraperitoneally once daily
Excerpt: The MRL/MpJ-Faslpr/J (Hereinafter Referred to as “MRL/lpr”) used in this experiment is one of the representative animal models for systemic lupus erythematosus (SLE), known to produce various autoantibodies, including antinuclear antibodies, due to the lpr (lymphoproliferation) gene.
In this invention, the period up to 9 weeks of age was considered the pre-disease stage, and the period after 23 weeks of age was considered the post-disease stage, and efficacy verification experiments using this model were conducted.
MRL/lpr mice were imported from The Jackson Laboratory and acclimatized for one week in an SPF (Specific Pathogen Free) facility maintained at a temperature of 21-24° C., humidity of 40-60%, and a 12-hour light-dark cycle (lights on at 7:00 AM, lights off at 7:00 PM). […]
The serum separated at the time of necropsy of the lupus animal model was analyzed using the ‘IgG (Total) Mouse Uncoated ELISA Kit (Invitrogen, Cat. #88-50400)’ to measure the concentration of total IgG.
Capture antibody (anti-mouse IgG) diluted 1/250 in coating buffer was added to each well of a 96-well plate (Nunc™ MaxiSorp™ ELISA Plates, Uncoated, BioLegend, Cat. #423501) at 100 μl per well, and the plate was incubated at 4° C. for 16 hours.
To investigate the effect of GO15F administration on changes in the ratio of immune cells in the spleen of a lupus animal model, the spleens of mice administered each compound were excised, cells were extracted, and the cells were suspended in MACS buffer (autoMACS Washing Solution, Miltenyi Biotec., Cat. #130-092-987).
For flow cytometry analysis, FACS tubes (5 mL round tubes, Falcon, Cat. #352052) were used. To prevent non-specific binding of antibodies, 1 μg/mL of anti-mouse CD16/CD32 (InVivoPlus anti-mouse CD16/CD32, BioXCell, Cat. #BP0307) for 30 minutes to prevent non-specific binding of the antibody, then centrifuge at 1,500 rpm for 5 minutes and resuspend in 100 μL of MACS buffer.
For B cells, each FACS tube was stained with 1 μg/mL of FITC-conjugated anti-B220 antibody (eBioscience™, Cat. #11-0452-81) at 4° C. for 30 minutes, then washed with 2 mL of MACS buffer.
For T cells, each FACS tube was stained with 1 μg/mL PerCP-Cy5.5-conjugated anti-CD3 (Biolegend, Cat. #100218) at 4° C. for 30 minutes.
For macrophages, each FACS tube was stained with 1 μg/mL of PE-conjugated anti-CD11b antibody (Biolegend, Cat. #101207) and PerCP-Cy5.5-conjugated anti-F4/80 (Biolegend, Cat. #123128) and incubated at 4° C. for 30 minutes. The tubes were then washed with 2 mL of MACS buffer.
To investigate the effects of compound GO15F according to the present invention on systemic immune responses in a lupus animal model, gene expression analysis of cytokines in kidney tissue was performed as described in (1).
Each kidney tissue was used to isolate total RNA using TRIzol™ (Invitrozen, Cat. #15596018). RNA from each mouse was quantified at 1 μg using a micro-quantitative spectrophotometer (ThermoFisher Scientific, ND2000) and cDNA was synthesized.
The synthesized cDNA from each mouse was quantified to a concentration of 50 ng using a micro-quantitative spectrophotometer, and qPCR was performed for the cytokines ‘IL-2, IL-6, IL-10, IL-17, TNF-α, IFN-γ’ using a SYBR green probe (CFX96, BIO-RAD).
To investigate the effects of drug administration on renal tissue in MRL/lpr mice, the tissue was fixed in 10% neutral buffered formalin at room temperature, followed by stepwise ethanol penetration for dehydration. The tissue was then embedded in xylene and paraffin.
The blocked tissues were sectioned into 4 μm thick slices using a microtome, followed by deparaffinization, hydration, and staining.
Hematoxylin & Eosin staining, PAS staining, and Masson trichrome staining were performed for pathological evaluation of the tissues. […]

[4] = test system: psoriasis-induced BALB/c mice; experiment: Psoriasis animal model (Aldara cream, Imiquimod); type: in vivo, mouse
Description: To verify the therapeutic effect of the compound according to the present invention on psoriasis, a psoriasis animal model was established as follows, and the compound according to the present invention was administered to evaluate the alleviation of skin lesions and changes in immune cell patterns.
For the establishment of the psoriasis animal model, BALB/c mice (7 weeks old, female, 20 g) were purchased from HanabioTech Co., Ltd. and acclimatized to the rearing environment for one week.
Subsequently, the hair on the mouse back was shaved using a hair removal device for the first time, and then completely shaved using a depilatory cream (Nicrin Cream (80% thioglycolic acid, Il Dong Pharmaceutical)) for the second time. The mice were then kept for 24 hours to confirm the absence of skin damage.
To verify the psoriasis prevention and therapeutic effects of the compounds according to the present invention, the following experimental groups were established:
[Normal control group (Normal, Not Treatment), psoriasis-induced control group (Psoriasis, Not Treatment), psoriasis-induced vehicle control group (Psoriasis, Vehicle), experimental group (GO85, GO86, GO88, GO89, PBK-2024-010, PBK-2024-026, PBK-2025-002, PBK-2025-004, PBK-2025-016, PBK-2025-017, PBK-2025-023)]. […]
Body weights of mice in each group were measured on days 1, 4, and 8 after the start of injection and psoriasis induction. […]
To evaluate the therapeutic effect in a psoriasis-induced mouse model, the PASI (Psoriasis Area and Severity Index) score was measured.
The PASI score is based on three criteria: erythema, scaling, and skin thickness, each scored from 0 (none) to 4 (severe). […]
Observations were conducted daily at the same time, and the same observer visually assessed each criterion and recorded the scores, with the results presented in FIG. 13. […]
All samples were measured in duplicate, and the absorbance was measured at 450 nm using a microplate reader.

Compound	Proliferation inhibition rate (%) ([1]; compound 10 nM)	Proliferation inhibition rate (%) ([1]; compound 100 nM)	Proliferation inhibition rate (%) ([1]; compound 1 μM)	Proliferation inhibition rate (%) ([1]; compound 10 μM)	Proliferation inhibition rate (%) ([1]; compound 30 μM)	Proliferation inhibition rate (%) ([1]; compound 50 μM)	number of infiltrated cells [2]	PDK1 phosphorylation (phospho-PDK1 expression level) [3]	hair growth on the facial region (MRL/lpr mice)	efficacy in improving dermatological symptoms [4]
12-(4-hydroxypiperazin-1-yl)dodecyl-N-(6-aminopurazin-2-yl)carboxamide [Compound 10]	100.00	100.00	100.00	100.00	100.00	100.00	reduction in the number of infiltrated cells	–	–	–
Nc1ncccc1C(=O)NCCCCCCCCCCCCN1CCOCC1 [Compound 2, 2-Amino-N-(12-morpholin-4-yl-dodecyl)-nicotinamide]	–	–	–	–	–	–	–	stronger PDK1 inhibition	hair growth was confirmed	–
Nc1nc(NC(=O)CCCCCCCCCCCCN2CCN(CCO)CC2)nc2nc[nH]c12 [Compound 15, 12-[4-(2-hydroxyethyl)piperazin-1-yl]dodecyl-N-(6-aminopurine-2-yl)carboxamide]	–	–	–	–	–	–	reduction in the number of infiltrated cells	–	–	excellent efficacy in improving dermatological symptoms
